In PMC8079784, “The Mechanism of Action of Antigen Processing Independent T Cell Epitopes Designed for Immunotherapy of Autoimmune Diseases” (Frontiers in Immunology, 2021):

Tests used:
[1] = system: autoimmune hemolytic anemia; details: cited from earlier work
From the text: Previously we have shown that the impact of CD4 T cell epitope administration in the absence of adjuvant depends on peptide solubility. […] Importantly, however, addition of charged residues at the N- and C-termini of the band 3 epitope rendered it both soluble and immuno-modulatory. Unlike the insoluble 861-874 that both primed band 3 reactive inflammatory T cells and promoted generation of pathogenic ...

[2] = system: lymph node cells or splenocytes; test: T cell anergy: ex vivo proliferation of lymph node cells or splenocytes after dose escalation; type: in vivo, mouse (Tg4); details: Tg4 mice, six escalating SC doses, cells three days after sixth dose, 3H-TdR at 72 hours
Experimental: (§1) Tg4 mice were primed with a single dose (80μg) of 4Y in PBS by SC injection. Tolerance induction involved escalating dose immunotherapy (EDI) whereby each Tg4 or tiger-Tg4 mouse was treated with 0.08, 0.8, 8, 80, 80 and 80μg 4Y in PBS by SC injection at the right-side flank every 3rd or 4th day ([20]).
Proliferation was assessed by tritiated thymidine (^3H-TdR) incorporation with either whole splenocytes or isolated APC populations and antigen-specific Tg4 responder CD4^+ T cells. Tg4 whole splenocytes were cultured in 96-well round bottom plates, 2x10^5 whole splenocytes per well, with addition of the indicated concentration of the relevant peptide. Whole splenocytes from B10.PL mice that had received CD4^+ CD45.1^+ T cells followed by CD11c^+ cells were cultured in 48–well plates at 1.25x10^6 per well. […] Levels of incorporated radioactivity were assessed from the dried filter papers, sealed in sample bags (Wallac, Milton Keynes, UK) with 3ml scintillation fluid, ^3H-TdR incorporation was measured on a 1450 MicroBeta liquid scintillation counter (Wallac).
Figure 2 Peptide solubility predicts accessibility to steady state DC and determines tolerance induction: The 4Y peptide was rendered increasingly insoluble by addition of LF motifs. […] Proliferation was measured by tritiated thymidine (^3H-TdR) incorporation at 72 hours. […]

CD4 cells = test: Intracellular cytokine staining of spleen cells for IL-10 after dose escalation; type: in vivo, mouse (Tg4); details: Tg4 mice, after the final 80 µg dose of dose escalation
Experimental: as §1
Intracellular cytokine staining of splenocytes was performed after a 3-h stimulation with phorbol 12-myristate 13-acetate (5ng/ml) and ionomycin (500ng/ml) (both Sigma-Aldrich) with GolgiStop (BD Biosciences). Cells were stained with Vβ8-FITC (clone KJ16-133, diluted 1:100) or with fixable viability dye eFluor780 (1:1,000) before surface staining with CD4-Alexa700 (GK1.5, 1:100) and fixation using IC fixation buffer (all from eBioscience). Antibodies for intracellular cytokine staining were diluted in permeabilization buffer; IL-10-allophycocyanin (APC) (JES5-16E3, 1:200), IFN-γ-PerCP-Cy5.5 (XMG1.2, 1:200) (both from eBioscience). Data were collected using an LSR II flow cytometer (BD Biosciences) and analyzed using FlowJo software (Treestar).

splenic CD11c+ DC = test: In vivo APC targeting after SC peptide: ex vivo presentation to naive Tg4 CD4+ T cells; set-up: species or system mouse (B10.PL); details: 80µg SC, proliferation of Tg4 CD4+ T cells in vitro
From the text: CD11c^+ cells were isolated from whole splenocytes in MACS buffer using the CD11c microbead positive selection kit (Miltenyi Biotec, Surrey, UK) as per the manufacturer’s instructions. Single cell suspensions were used for magnetic selection using the EasySep Mouse B Cell Isolation kit or EasySep Mouse Monocyte Enrichment kit (both Stemcell Technologies, Grenoble, France) as per the manufacturer’s instructions. In the B10.PL APC targeting experiments, single cell suspensions (without digestion) of Tg4 splenocytes were counted and T cells isolated using Magnisort® Mouse CD4 T cell isolation kit (affymetrix, eBioscience, Hatfield, UK) as per the manufacturer’s instructions. Cells were either enriched by magnetic sorting prior to fluorescence-activated cell sorting (FACS) or sorted from splenocytes. […] Peptide bound to APC was detected in vitro by activation of naïve Tg4 cells, as evidenced through ^3H.thymidine incorporation. […] Peptide bound to APC was detected in vitro by activation of CD4^+ T cells from the lymph nodes and spleen of HLA-DR3 transgenic mice immunized with the 5D peptide in CFA. T cell activation was detected by interferon gamma secretion over 3 days.
Proliferation was assessed by tritiated thymidine (^3H-TdR) incorporation with either whole splenocytes or isolated APC populations and antigen-specific Tg4 responder CD4^+ T cells. […]

Tg4 splenocytes = test: In vitro antigenicity: proliferation of Tg4 splenocytes (3H-TdR); type: cell-based, mouse; details: 2x10^5 per well, 3H-TdR at d3; limiting dose 1 ng/ml
Experimental: Proliferation was assessed by tritiated thymidine (^3H-TdR) incorporation with either whole splenocytes or isolated APC populations and antigen-specific Tg4 responder CD4^+ T cells. Tg4 whole splenocytes were cultured in 96-well round bottom plates, 2x10^5 whole splenocytes per well, with addition of the indicated concentration of the relevant peptide. Whole splenocytes from B10.PL mice that had received CD4^+ CD45.1^+ T cells followed by CD11c^+ cells were cultured in 48–well plates at 1.25x10^6 per well. Isolated populations were plated out at 5x10^4/well CD4^+ T cells, with either equal numbers of CD11c^+ DC, B cells or monocytes enriched as specified. Cells were cultured at 37°C, 5% CO2. At 24 and 72 hours, supernatant was taken for cytokine analysis and medium was supplemented with 0.5µCi ^3H-TdR (GE Healthcare Lifesciences, UK) for 16 hours. Plates were frozen at –20°C in preparation for later harvesting with a Tomtec harvester onto filter papers (Cox Scientific, Kettering, UK). Levels of incorporated radioactivity were assessed from the dried filter papers, sealed in sample bags (Wallac, Milton Keynes, UK) with 3ml scintillation fluid, ^3H-TdR incorporation was measured on a 1450 MicroBeta liquid scintillation counter (Wallac).

serum IL-2 = test: Serum IL-2 after a single SC dose of peptide; type: in vivo, mouse (Tg4); details: Tg4 mice, single SC dose 80µg
Experimental: as §1
(§2) MFBI Th1/Th2 Flow Cytomix Multiplex kits (eBioscience) were used to measure the concentration of cytokines in the serum 2 h after s.c. treatment with soluble peptide.
(§3) Figure 3 Impact of soluble versus insoluble peptide treatment on T cell function in Tg4 mice. A single SC dose of soluble 4Y (80µg) induces rapid and high levels of IL-2 into the serum of Tg4 mice (A) when compared to insoluble 4Y-3LF (B). For the data shown in (C), Tg4 mice received a SC injection of 80µg MBP Ac1-9[4Y] or 4Y-3LF. Blood was removed from the tail vein at the specified times following injection, baseline was taken prior to peptide injection and the cellular fraction was stained for flow cytometry. Inguinal lymph node (ILN), brachial lymph node (BLN) and spleen were collected at 48–hours. Percentages of CD4^+ cells were gated on live singlets. […] (*p ≤ 0.05, **p ≤ 0.01, ***p ≤ 0.001, ****p ≤ 0.0001). […] Tg4 mice were given SC injections of PBS containing the indicated doses of 4Y peptide given every 3rd or 4th day (2 doses per week).

serum IL-10 = test: Serum IL-10 during dose escalation of SC peptide; type: in vivo, mouse (Tg4); details: Tg4 mice, SC dose escalation 0.08 to 80µg every 3rd or 4th day
Experimental: as §1, §2, §3

Substance: 861-874: insoluble peptide epitope from the red blood cell band 3 protein (FVLILTVPLRRVLL; UniProt P02730 861-874, looked up, fragment) [Peptide 861-874]
- Effect of intranasal administration in NZB mice ([1]; intranasal, no adjuvant): promote autoimmunity
- Solubility of band 3 peptide ([1]; mouse, in vivo): insoluble

Substance: Ac-ASQYRPSLFLFLF-NH2 [Peptide 4Y-3LF]
- Ex vivo proliferation of lymph node cells or splenocytes stimulated with the Ac1-9 peptide [2]: partially suppressed
- CD4 cells producing IL-10 (intracellular cytokine staining of spleen cells) (CD4 cells): close to background levels
- Presentation by splenic CD11c+ DC collected 2h after SC administration (splenic CD11c+ DC): barely detectable
- Antigenicity: proliferation of Tg4 splenocytes in vitro (Tg4 splenocytes): significantly weaker
- Time of peak serum IL-2 after SC injection (serum IL-2): 8 h
- IL-10 detectable in serum (serum IL-10): No IL-10 was detectable
